Experimental data as given in patent US20120027857A1, “CONTROLLED RELEASE PHARMACEUTICAL CO[…]-[…]-VENLAFAXINE” (LEK PHARMACEUTICALS D.D., priority 2008, published 2012).

Experiments:
pH of 1% water solution = format: physicochemical
[1] = Dissolution test, USP apparatus 1, 900 ml water with 0.9% NaCl, 150 rpm, 37°C, HPLC; format: physicochemical; details: compared to O-desmethyl-venlafaxine succinate from the tablet having the same composition
Method: Dissolution properties were evaluated by in vivo relevant dissolution test. USP apparatus 1 was used for testing. 900 ml of water with 0.9% NaCl is placed in the dissolution vessel, mixed with a paddle at 150 rpm and kept at 37±0.5° C. Samples were taken from the dissolution vessel at regular time intervals and the concentrations of O-desmethyl-venlafaxine were analyzed by HPLC.
Pharmaceutical compositions might be optionally placed for 60 minutes in 900 ml 0.01 M HCl before being placed in 900 ml water with 0.9% NaCl.

SMILES | pH (1% water solution) (pH of 1% water solution) | dissolution of salt from matrix tablet [1]
CN(C)CC(c1ccc(O)cc1)C1(O)CCCCC1.O=C[C@H](O)[C@@H](O)[C@H](O)[C@H](O)C(=O)O (stereo not drawn) [O-desmethyl-venlafaxine glucuronate] | 6.14 | 
CN(C)CC(c1ccc(O)cc1)C1(O)CCCCC1.O=C(O)c1cc(=O)[nH]c(=O)[nH]1 (stereo not drawn) [O-desmethyl-venlafaxine orotate] | 3.3 | much faster
